Test results published in ChEMBL document CHEMBL1201862, “PubChem BioAssay data set” (2004).
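The compound was tested at five concentrations on cells cultured in 96-well plates, with a 48-hour exposure period. GI50 = concentration required for 50% inhibition of growth.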 Active and inactive are the calls of the source. Rule as the data show it: active = GI50 up to about 1.1 µM and inactive = higher.

Tests used:
Assay in all cases: NCI-60 cell line screen, 48 h
MDA-MB-435 = tested on: MDA-MB-435
Hs-578T = tested on: Hs-578T
OVCAR-3 = tested on: OVCAR-3
SK-MEL-5 = tested on: SK-MEL-5
UACC-257 = tested on: UACC-257
DU-145 = tested on: DU-145
EKVX = tested on: EKVX
HCT-116 = tested on: HCT-116
A498 = tested on: A498
HT-29 = tested on: HT-29
CCRF-CEM = tested on: CCRF-CEM
SK-OV-3 = tested on: SK-OV-3
A549 = tested on: A549
HCT-15 = tested on: HCT-15
RPMI-8226 = tested on: RPMI-8226
NCI-H460 = tested on: NCI-H460
SF-539 = tested on: SF-539
NCI/ADR-RES = tested on: NCI/ADR-RES
SK-MEL-2 = tested on: SK-MEL-2

Structure (SMILES) | GI50 (MDA-MB-435) | GI50 (Hs-578T) | GI50 (OVCAR-3) | GI50 (SK-MEL-5) | GI50 (UACC-257) | GI50 (DU-145) | GI50 (EKVX) | GI50 (HCT-116) | GI50 (A498) | GI50 (HT-29) | GI50 (CCRF-CEM) | GI50 (SK-OV-3) | GI50 (A549) | GI50 (HCT-15) [µM] | GI50 (RPMI-8226) | GI50 (NCI-H460) | GI50 (SF-539) | GI50 (NCI/ADR-RES) | GI50 (SK-MEL-2)
COc1ccc(C2=Nn3c(nc4sc5c(c4c3=O)CCCC5)SC2)cc1 | > 100 µM (inactive) | 70.6 µM (inactive) | > 100 µM (inactive) | > 100 µM (inactive) | > 100 µM (inactive) | > 100 µM (inactive) | > 100 µM (inactive) | > 100 µM (inactive) | > 100 µM (inactive) | > 100 µM (inactive) | > 100 µM (inactive) | > 100 µM (inactive) | > 100 µM (inactive) | > 100 | > 100 µM (inactive) | > 100 µM (inactive) | > 100 µM (inactive) | > 100 µM (inactive) | –
CC(C)C(Nc1ncnc2nc[nH]c12)C(=O)O (stereo unspecified) | > 100 µM (inactive) | > 100 µM (inactive) | > 100 µM (inactive) | > 100 µM (inactive) | > 100 µM (inactive) | > 100 µM (inactive) | > 100 µM (inactive) | > 100 µM (inactive) | > 100 µM (inactive) | > 100 µM (inactive) | > 100 µM (inactive) | > 100 µM (inactive) | > 100 µM (inactive) | > 100 | > 100 µM (inactive) | > 100 µM (inactive) | – | > 100 µM (inactive) | > 100 µM (inactive)
COc1ccc(OC)c(C[P+](c2ccccc2)(c2ccccc2)c2ccccc2)c1 | 0.984 µM (active) | 2.01 µM (inactive) | 2.54 µM (inactive) | 0.991 µM (active) | 0.656 µM (active) | 3.27 µM (inactive) | 10.6 µM (inactive) | 1.02 µM (active) | 4.36 µM (inactive) | 0.45 µM (active) | 2.56 µM (inactive) | 2.58 µM (inactive) | 3.56 µM (inactive) | 18.5 | 0.33 µM (active) | 3.84 µM (inactive) | 3.82 µM (inactive) | > 100 µM (inactive) | –
Nc1ccn(C2CCC(COP(=O)(O)OCC(O)COP(=O)(O)OCC3OC(n4cc(F)c(=O)[nH]c4=O)CC3O)O2)c(=O)n1 (stereo unspecified) | 14.8 µM (inactive) | 1.96 µM (inactive) | 23.2 µM (inactive) | 0.514 µM (active) | > 100 µM (inactive) | 0.165 µM (active) | > 75.9 µM (inactive) | 0.581 µM (active) | – | 2.79 µM (inactive) | 0.124 µM (active) | 59.2 µM (inactive) | 0.386 µM (active) | 14.4 | 10.4 µM (inactive) | < 0.01 µM (active) | 0.0216 µM (active) | 0.215 µM (active) | 75.3 µM (inactive)
COc1cc(O)c2c(=O)c(OC)c(-c3ccc4c(c3)OCO4)oc2c1 | > 100 µM (inactive) | 21.6 µM (inactive) | – | > 35.6 µM (inactive) | > 100 µM (inactive) | > 100 µM (inactive) | > 60.8 µM (inactive) | > 44.4 µM (inactive) | 38.5 µM (inactive) | > 100 µM (inactive) | > 100 µM (inactive) | 13.9 µM (inactive) | > 28.8 µM (inactive) | > 100 | > 100 µM (inactive) | 6.01 µM (inactive) | > 27.4 µM (inactive) | > 100 µM (inactive) | 59.7 µM (inactive)
COc1c(-c2ccc3c(c2)OCO3)oc2cc(O)cc(O)c2c1=O | 45.7 µM (inactive) | 14.3 µM (inactive) | – | 56.5 µM (inactive) | > 100 µM (inactive) | 59.3 µM (inactive) | 43.7 µM (inactive) | 62.1 µM (inactive) | 21.9 µM (inactive) | 36.6 µM (inactive) | 41.4 µM (inactive) | 19.6 µM (inactive) | 47.3 µM (inactive) | 55.6 | 34 µM (inactive) | 64 µM (inactive) | 39.6 µM (inactive) | 46 µM (inactive) | > 100 µM (inactive)
Clc1ccc(Nc2ncco2)cc1Cl | > 10 µM (inactive) | > 10 µM (inactive) | > 10 µM (inactive) | > 10 µM (inactive) | > 10 µM (inactive) | > 10 µM (inactive) | > 10 µM (inactive) | > 10 µM (inactive) | > 10 µM (inactive) | > 10 µM (inactive) | > 10 µM (inactive) | > 10 µM (inactive) | > 10 µM (inactive) | > 10 | – | > 10 µM (inactive) | > 10 µM (inactive) | > 10 µM (inactive) | –
CCSC1=N/C(=C\c2ccco2)C(=O)N1 | > 100 µM (inactive) | > 100 µM (inactive) | > 100 µM (inactive) | > 100 µM (inactive) | – | > 100 µM (inactive) | > 100 µM (inactive) | > 100 µM (inactive) | > 100 µM (inactive) | > 100 µM (inactive) | > 100 µM (inactive) | > 100 µM (inactive) | > 100 µM (inactive) | > 100 | > 100 µM (inactive) | – | – | > 100 µM (inactive) | > 100 µM (inactive)
